What all share (experiment): Minimum Inhibitory Concentration (MIC), agar dilution, standard strains
In general terms: In agar dilution, organisms are placed on agar that contains the substance at set levels.

The subject of one experiment is S. aureus 77. Type of experiment: cell-based, Staphylococcus aureus. To be noted: Table 2, Mueller-Hinton agar, 37° C., 20 hours; for MIC: Staphylococcus aureus, 77, read-out: Minimum Inhibitory Concentration, S. aureus 77. On the procedure: (§1) The effectiveness of the compound according to the present invention was determined by obtaining Minimum Inhibitory Concentration (MIC) of the compounds prepared by the above examples (Compounds I-1 to I-41) and vancomycin, which is the known compound having a potent activity against gram-positive strains, as the control drug against the standard strains. Specifically, Minimum Inhibitory Concentration was obtained by diluting the test compound according to a double dilution method, dispersing them in Mueller-Hinton agar medium, inoculating each of the test strain having 10^7 cfu (colony forming unit) per ml in an amount of 2 μl to the medium and then incubating them at 37° C. for 20 hours. From the result of Minimum Inhibitory Concentration test, it can be seen that the compound according to the present invention has a good activity against major pathogenic microorganisms, which cause hospital infection, including MRSA strains.

In another experiment the test system is S. aureus K311. The experiment is classed as cell-based, Staphylococcus aureus. The conditions noted are these: Table 2, Mueller-Hinton agar, 37° C., 20 hours; for MIC: Staphylococcus aureus, K311, read-out: Minimum Inhibitory Concentration, S. aureus K311. As for the experimental part:
as §1

The test system of experiment [1] is Staphylococcus aureus giorgio. The experiment is classed as cell-based. To be noted: Table 2, Mueller-Hinton agar, 37° C., 20 hours; for MIC: Staphylococcus aureus, read-out: Minimum Inhibitory Concentration, Staphylococcus aureus giorgio. On the procedure:
as §1

The subject of a further experiment is S. epidermidis R005. Type of experiment: cell-based. To be noted: Table 2, Mueller-Hinton agar, 37° C., 20 hours; for MIC: Staphylococcus epidermidis, R005, read-out: Minimum Inhibitory Concentration, S. epidermidis R005. On the procedure:
as §1

A further experiment deals with E. faecalis EFS004. Type of experiment: cell-based. To be noted: Table 2, Mueller-Hinton agar, 37° C., 20 hours; for MIC: Enterococcus faecalis, EFS004, read-out: Minimum Inhibitory Concentration, E. faecalis EFS004. As for the experimental part:
as §1

Each structure is given as a SMILES string. Converted amounts (≈) assume the structure as drawn.

Regarding `Nc1cc(N)nc(SC/C=C/C2=C(C(=O)O)N3C(=O)[C@@H](NC(=O)CSc4cc(Cl)nc(Cl)c4)[C@H]3SC2)n1` [Compound I-8, (6R,7R)-3-{(E)-3-[(4,6-diamino-2-pyrimidinyl)sulfanyl]-1-propenyl}-7-({2-[(2,6-dichloro-4-pyridinyl)sulfanyl]acetyl}amino)-8-oxo-5-thia-1-azabicyclo[4.2.0]oct-2-ene-2-carboxylic acid], the MIC with S. aureus 77 was 0.25 µg/mL (≈ 0.416 µM); in the experiment on S. aureus K311 it was 0.5 µg/mL (≈ 0.833 µM); in experiment [1], 0.031 µg/mL (≈ 0.0516 µM); with S. epidermidis R005, 0.5 µg/mL (≈ 0.833 µM); with E. faecalis EFS004 it was 1 µg/mL (≈ 1.67 µM).

`Nc1nc(SC/C=C/C2=C(C(=O)O)N3C(=O)[C@@H](NC(=O)CSc4cc(Cl)nc(Cl)c4)[C@H]3SC2)nc2[nH]ncc12` [Compound I-9, (6R,7R)-3-{(E)-3-[(4-amino-1H-pyrazolo[3,4-d]pyrimidin-6-yl)sulfanyl]-1-propenyl}-7-({2-[(2,6-dichloro-4-pyridinyl)sulfanyl]acetyl}amino)-8-oxo-5-thia-1-azabicyclo[4.2.0]oct-2-ene-2-carboxylic acid]: the MIC in the experiment with S. aureus 77 worked out at 0.25 µg/mL (≈ 0.4 µM); with S. aureus K311, 1 µg/mL (≈ 1.6 µM); in experiment [1], 0.031 µg/mL (≈ 0.0496 µM); with S. epidermidis R005, 0.5 µg/mL (≈ 0.799 µM); with E. faecalis EFS004 it was 1 µg/mL (≈ 1.6 µM).

Turning to `Nc1nc(O)cc(SC/C=C/C2=C(C(=O)O)N3C(=O)[C@@H](NC(=O)CSc4cc(Cl)nc(Cl)c4)[C@H]3SC2)n1` [Compound I-10, (6R,7R)-3-{(E)-3-[(2-amino-6-hydroxy-4-pyrimidinyl)sulfanyl]-1-propenyl}-7-({2-[(2,6-dichloro-4-pyridinyl)sulfanyl]acetyl}amino)-8-oxo-5-thia-1-azabicyclo [4.2.0]oct-2-ene-2-carboxylic acid], the MIC in the experiment with S. aureus 77 came out at 0.25 µg/mL (≈ 0.416 µM); in the experiment with S. aureus K311 it was 0.5 µg/mL (≈ 0.831 µM); in experiment [1], 0.016 µg/mL (≈ 0.0266 µM); in the experiment on S. epidermidis R005, 0.25 µg/mL (≈ 0.416 µM); with E. faecalis EFS004, 1 µg/mL (≈ 1.66 µM).

`Nc1cc(SC/C=C/C2=C(C(=O)O)N3C(=O)[C@@H](NC(=O)CSc4cc(Cl)nc(Cl)c4)[C@H]3SC2)nc(N)n1` [Compound I-11, (6R,7R)-3-{(E)-3-[(2,6-diamino-4-pyrimidinyl)sulfanyl]-1-propenyl}-7-( {2-[(2,6-dichloro-4-pyridinyl)sulfanyl]acetyl}amino)-8-oxo-5-thia-1-azabicyclo[4.2.0]oct-2-ene-2-carboxylic acid]: the MIC in the experiment with S. aureus 77 was 0.25 µg/mL (≈ 0.416 µM); in the experiment on S. aureus K311, 0.5 µg/mL (≈ 0.833 µM); in experiment [1], 0.016 µg/mL (≈ 0.0266 µM); in the experiment on S. epidermidis R005, 0.5 µg/mL (≈ 0.833 µM); in the experiment on E. faecalis EFS004 it was 2 µg/mL (≈ 3.33 µM).

With `CCSc1nc(C)cc(SC/C=C/C2=C(C(=O)O)N3C(=O)[C@@H](NC(=O)CSc4cc(Cl)nc(Cl)c4)[C@H]3SC2)n1` [Compound I-12, (6R,7R)-7-({2-[(2,6-dichloro-4-pyridinyl)sulfanyl]acetyl}amino)-3-((E)-3-{[2-(ethylsulfanyl)-6-methyl-4-pyrimidinyl]sulfanyl}-1-propenyl)-8-oxo-5-thia-1-azabicyclo[4.2.0]oct-2-ene-2-carboxylic acid], the MIC was 0.5 µg/mL (≈ 0.776 µM) with S. aureus 77; 1 µg/mL (≈ 1.55 µM) with S. aureus K311; 0.031 µg/mL (≈ 0.0481 µM) in experiment [1]; 0.5 µg/mL (≈ 0.776 µM) in the experiment on S. epidermidis R005; 0.5 µg/mL (≈ 0.776 µM) in the experiment with E. faecalis EFS004.

As for `Cn1c(N)n[n+]2c(SC/C=C/C3=C(C(=O)O)N4C(=O)[C@@H](NC(=O)CSc5cc(Cl)nc(Cl)c5)[C@H]4SC3)nc(N)cc12` [Compound I-14, 2,7-diamino-5-({(E)-3-[(6R,7R)-2-carboxy-7-({2-[(2,6-dichloro-4-pyridinyl)sulfanyl]acetyl}amino)-8-oxo-5-thia-1-azabicyclo[4.2.0]oct-2-en-3-yl]-2-propenyl}sulfanyl)-1-methyl-1H-[1,2,4]triazolo[1,5-c]pyrimidin-4-ium], the “Minimum Inhibitory Concentration, S. aureus 77” value in the experiment with S. aureus 77 amounted to 0.13 µg/mL. Moreover, the “Minimum Inhibitory Concentration, S. aureus K311” value in the experiment with S. aureus K311 came to 0.25 µg/mL. In experiment [1], the “Minimum Inhibitory Concentration, Staphylococcus aureus giorgio” value was below 0.008 µg/mL. Further, the “Minimum Inhibitory Concentration, S. epidermidis R005” value in the experiment with S. epidermidis R005 worked out at 0.13 µg/mL. In addition, the “Minimum Inhibitory Concentration, E. faecalis EFS004” value in the experiment with E. faecalis EFS004 was determined as 1 µg/mL.

Source of the values: patent US20030162762A1, “Novel cephalosporin compounds and process for preparing the same” (priority 2000, published 2003).
